Data taken from the RepoRT retention time repository (doi:10.1016/j.foodchem.2015.11.070).

Experiment: Thermo Scientific Hypersil GOLD aQ, 100 × 2.1 mm, 1.9 µm, 30 °C, 0.3 mL/min, estimated dead time 0.73 min; A: water + 0.01% formic acid + 4 mM ammonium formate; B: methanol + 0.01% formic acid + 4 mM ammonium formate; gradient (min/%B) 0/5 1/5 8/100 12/100
Settings: stereoisomer not certain

## CCC1CCCC(OC2CCC(N(C)C)C(C)O2)C(C)C(=O)C2=CC3C(C=CC4CC(OC5OC(C)C(OC)C(OC)C5OC)CC43)C2CC(=O)O1 (stereo unspecified)
  LC retention time: 10.3 min

## CCOC(=O)C(SP(=S)(OC)OC)c1ccccc1 (stereo unspecified)
  LC retention time: 10.1 min

## CCSCCSP(=S)(OC)OC
  LC retention time: 8.94 min

## CCSCc1ccccc1OC(=O)NC
  LC retention time: 8.76 min

## CCOC(=O)NCCOc1ccc(Oc2ccccc2)cc1
  LC retention time: 9.38 min

## CCOP(=O)(NC(C)C)Oc1ccc(S(C)=O)c(C)c1 (stereo unspecified)
  LC retention time: 8.44 min

## CCNc1nc(NC(C)C)nc(SC)n1
  LC retention time: 9.18 min

## CCOC1Oc2ccc(OS(C)(=O)=O)cc2C1(C)C (stereo unspecified)
  LC retention time: 9.42 min

## CNC(=O)ON=C(SC)C(=O)N(C)C
  LC retention time: 5.75 min

## CC#Cc1cc(C)nc(Nc2ccccc2)n1
  LC retention time: 10 min

## c1ccc2[nH]c(-c3cscn3)nc2c1
  LC retention time: 6.96 min

## CCSC(=O)N(CC)C1CCCCC1
  LC retention time: 10.6 min

## CNC(=O)Oc1cccc2c1OC(C)(C)C2
  LC retention time: 8.41 min

## CCCC(=NOCC)C1=C(O)CC(C2CCCSC2)CC1=O (stereo unspecified)
  LC retention time: 10.5 min

## CCCC(=NOCC)C1=C(O)CC(CC(C)SCC)CC1=O (stereo unspecified)
  LC retention time: 10.7 min

## CCc1ccc(C(=O)NN(C(=O)c2cc(C)cc(C)c2)C(C)(C)C)cc1
  LC retention time: 9.99 min

## CCOC(=O)N(C)C(=O)CSP(=S)(OCC)OCC
  LC retention time: 9.84 min

## CNC(=O)ON=C(C)C(C)S(C)(=O)=O (stereo unspecified)
  LC retention time: 7.37 min

## COCC(=O)N(c1c(C)cccc1C)N1CCOC1=O
  LC retention time: 8.04 min

## COP(=S)(OC)Oc1ccc(SC)c(C)c1
  LC retention time: 10.2 min

## Cc1cc(=O)[nH]o1
  LC retention time: 5.67 min

## COc1cc2c(c3oc(=O)c4c(c13)CCOC4=O)C1CCOC1O2 (stereo unspecified)
  LC retention time: 7.8 min

## COC(=O)Nc1cccc(OC(=O)Nc2cccc(C)c2)c1
  LC retention time: 9.23 min

## CCC(C)Nc1c([N+](=O)[O-])cc(C(C)(C)C)cc1[N+](=O)[O-] (stereo unspecified)
  LC retention time: 9.23 min

## CC=C(C)C(=O)OC1CC(OC(C)=O)C2(C(=O)OC)COC3C2C12COC(O)(C(=O)OC)C2C(C)(C12OC1(C)C1CC2OC2OC=CC21O)C3O (stereo unspecified)
  LC retention time: 8.67 min

## COP(=S)(OC)SCn1nnc2ccccc2c1=O
  LC retention time: 9.38 min

## CNC(=O)ON=C(CS(C)=O)C(C)(C)C (stereo unspecified)
  LC retention time: 6.31 min

## CC(C)c1ccc(NC(=O)N(C)C)cc1
  LC retention time: 9.15 min

## CN(C)NC(=O)CCC(=O)O
  LC retention time: 1.58 min

## COC(=O)C(C)N(C(=O)c1ccco1)c1c(C)cccc1C (stereo unspecified)
  LC retention time: 9.38 min

## CNC(=O)ON=C(C)C(C)SC (stereo unspecified)
  LC retention time: 7.89 min

## CCNc1nc(NCC)nc(SC)n1
  LC retention time: 8.62 min

## CCCCOCCOCCOCc1cc2c(cc1CCC)OCO2
  LC retention time: 10.8 min

## CNC(=O)Oc1cc(C)c(SC)c(C)c1
  LC retention time: 8.76 min

## CCC(C)C1OC2(C=CC1C)CC1CC(CC=C(C)C(OC3CC(OC)C(OC4CC(OC)C(NC)C(C)O4)C(C)O3)C(C)C=CC=C3COC4C(O)C(C)=CC(C(=O)O1)C34O)O2 (stereo unspecified)
  LC retention time: 11.9 min

## COc1nn(CSP(=S)(OC)OC)c(=O)s1
  LC retention time: 9.26 min

## CC(C)C1(C)N=C(c2ncccc2C(=O)O)NC1=O (stereo unspecified)
  LC retention time: 6.79 min

## Cc1ccc2nc3sc(=O)sc3nc2c1
  LC retention time: 9.19 min

## COC(=O)C=C(C)OP(=O)(OC)OC
  LC retention time: 7.66 min

## CNC(=O)ON=C(CS(C)(=O)=O)C(C)(C)C
  LC retention time: 6.92 min

## CC(C)N(Cc1ccccc1)C(=O)C(C)(C)C
  LC retention time: 9.96 min

## CNC(=O)Oc1ccccc1OC(C)C
  LC retention time: 8.36 min

## CCOP(=S)(OCC)OP(=S)(OCC)OCC
  LC retention time: 10.1 min

## CCOP(=S)(OCC)Oc1cc(C)nc(N(CC)CC)n1
  LC retention time: 10.7 min

## COP(N)(=S)Oc1ccccc1C(=O)OC(C)C (stereo unspecified)
  LC retention time: 9.04 min

## Cc1cc(C)c(C2=C(OC(=O)CC(C)(C)C)C3(CCCC3)OC2=O)c(C)c1
  LC retention time: 10.9 min

## COP(N)(=O)SC (stereo unspecified)
  LC retention time: 1.58 min

## O=c1[nH]c2c(c(=O)n1C1CCCCC1)CCC2
  LC retention time: 9.11 min

## CSc1nc(NC(C)C)nc(NC(C)C)n1
  LC retention time: 9.65 min

## CNC(=O)Oc1cccc2c1OC(C)(C)C2O (stereo unspecified)
  LC retention time: 7.11 min

## COc1cc(OC)nc(NC(=O)NS(=O)(=O)c2ncccc2C(=O)N(C)C)n1
  LC retention time: 8.01 min
